The target of one test is human recombinant cRAF (Homo sapiens, UniProt P04049). The experiment in a line: cRAF Inhibition Assay (TR-FRET). The class given is biochemical. On the procedure:
(§1) Activity of human recombinant cRAF were assessed in vitro using time-resolved fluorescence resonance energy transfer (TR-FRET) assay. The assay was performed according to the kit instructions. Briefly, the cRAF enzyme (BPS Bioscience, cat #40008) was diluted to 0.027 ng/μL using the 1× kinase buffer A (Life Tech, cat #PV6135, 5× dilution with H2O); the Fluorescein labeled-MAP2K1 (Life Tech, Cat #PV4812) was diluted to 0.5 μM; ATP (Life Tech, cat #PV3227) was diluted to 20 μM; 2.54, of each diluted reagent was added to a 384-well plate (PerkinElmer, ProxiPlate-384 Plus, 6008280) and mixed together; 2.54, serial diluted compound were added into the mixture. 104, 400-fold diluted LanthaScreen Tb-pMAP2K1 (pSer217/221) antibody (Life Tech, cat #PV4817) was then added to each kinase reaction. The reactions were incubated at Room Temperature for 1 hour. The plate was then read on PHERAstar FSX using 340/490/520 module. Inhibition data were calculated by comparison to vehicle control wells for 0% inhibition and non-stimulated control wells for 100% inhibition. Dose response curves were then generated to determine the concentration required to suppress 50% of enzymatic response (IC50) as derived by non-linear regression analysis using GraphPad Prism.

A further test has as its target T1, human recombinant BRAF (Homo sapiens, UniProt P15056).
T1 construct: purchased BPS Bioscience 40065
The experiment in a line: BRAF^WT Inhibition Assay (TR-FRET). In kind it is biochemical. On the procedure: as §1, with “BRAF” for “cRAF”, “#40065)” for “#40008)”

The target in test [1] is T2, human recombinant V600E mutant BRAF (Homo sapiens, UniProt P15056, V600E).
T2 construct: purchased BPS Bioscience 40533
T2 sequence (P15056 whole entry V600E): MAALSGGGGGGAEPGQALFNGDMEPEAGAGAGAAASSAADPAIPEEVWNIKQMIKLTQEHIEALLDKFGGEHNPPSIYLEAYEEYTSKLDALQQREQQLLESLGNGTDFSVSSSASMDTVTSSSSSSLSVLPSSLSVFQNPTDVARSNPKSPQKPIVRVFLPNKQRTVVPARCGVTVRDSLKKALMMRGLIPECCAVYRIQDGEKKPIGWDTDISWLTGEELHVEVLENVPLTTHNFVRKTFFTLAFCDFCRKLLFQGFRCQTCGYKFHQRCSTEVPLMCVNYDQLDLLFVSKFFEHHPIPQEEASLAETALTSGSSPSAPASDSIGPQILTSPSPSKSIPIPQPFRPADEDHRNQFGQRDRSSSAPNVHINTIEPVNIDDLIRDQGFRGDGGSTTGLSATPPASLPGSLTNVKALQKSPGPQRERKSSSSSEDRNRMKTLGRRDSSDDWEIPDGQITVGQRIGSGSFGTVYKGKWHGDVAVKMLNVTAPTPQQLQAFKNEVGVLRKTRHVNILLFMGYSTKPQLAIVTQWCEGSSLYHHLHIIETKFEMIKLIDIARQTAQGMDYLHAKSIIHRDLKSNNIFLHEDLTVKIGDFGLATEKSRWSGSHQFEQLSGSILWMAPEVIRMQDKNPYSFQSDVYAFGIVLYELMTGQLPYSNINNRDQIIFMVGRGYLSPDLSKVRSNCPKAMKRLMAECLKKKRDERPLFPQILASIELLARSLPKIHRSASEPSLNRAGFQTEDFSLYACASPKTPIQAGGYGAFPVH
In words: BRAF^V600E Inhibition Assay (TR-FRET). The class given is biochemical. On the procedure:
Activity of human recombinant V600E mutant BRAF were assessed in vitro using time-resolved fluorescence resonance energy transfer (TR-FRET) assay. The assay was performed according to the kit instructions. Briefly, the V600E mutant BRAF enzyme (BPS Bioscience, cat #40533) was diluted to 0.027 ng/μL using the 1× kinase buffer A (Life Tech, cat #PV6135, 5× dilution with H2O); the Fluorescein labeled-MAP2K1 (Life Tech, Cat #PV4812) was diluted to 0.5 μM; ATP (Life Tech, cat #PV3227) was diluted to 20 μM; 2.5 μl of each diluted reagent was added to a 384-well (PerkinElmer, ProxiPlate-384 Plus, 6008280) plate and mixed together; 2.54, serial diluted compounds were added into the mixture. 104, 400-fold diluted LanthaScreen Tb-pMAP2K1 (pSer217/221) antibody (Life Tech, cat #PV4817) was then added to each kinase reaction. The reactions were incubated at Room Temperature for 1 hour. The plate was then read on PHERAstar FSX using 340/490/520 module. Inhibition data were calculated by comparison to vehicle control wells for 0% inhibition and non-stimulated control wells for 100% inhibition. Dose response curves were then generated to determine the concentration required to suppress 50% of enzymatic response (IC50) as derived by non-linear regression analysis using GraphPad Prism.

The test system of test [2] is NCI-H358 (KRAS^G12C) non-small cell lung cancer cell. In words: NCI-H358 Cancer Cell Growth Inhibition Assay (CellTiter-Glo). In kind it is cell-based, human. Particulars: for GI50: Homo sapiens, 72 h, NCI-H358 cells, incubated for 3 days, CellTiter-Glo. On the procedure:
Activity of human NCI-H358 (KRAS^G12C) non-small cell lung cancer cell growth inhibition was assessed in vitro using CellTiter-Glo® Luminescent Cell Viability Assay. The assay was performed according to the kit instructions (Promega, cat #G7570). Briefly, NCI-H358 cells (ATCC, #CRL-5807) were seeded in 96-well plates at a density of 2,500 cells/well in and cells were cultured overnight in a humidified, 5% CO2 cell culture incubator at 37° C. 10 μL serial diluted compounds were added into each cell-culture well and incubated for 3 days. 100 μL CellTiter-Glo® Reagent was added into each well. The reactions were incubated at Room Temperature for 10 minutes, and luminescence signals were recorded on a Tecan Luminescence Plate Reader. Inhibition data were calculated by comparison to vehicle control wells for 0% inhibition and non-stimulated control wells for 100% inhibition. Dose response curves were then generated to determine the concentration required to suppress 50% of cellular growth response (GI50) as derived by non-linear regression analysis using GraphPad Prism.

Chain of human recombinant cRAF (P04049 whole entry Y340D/Y341D, form open): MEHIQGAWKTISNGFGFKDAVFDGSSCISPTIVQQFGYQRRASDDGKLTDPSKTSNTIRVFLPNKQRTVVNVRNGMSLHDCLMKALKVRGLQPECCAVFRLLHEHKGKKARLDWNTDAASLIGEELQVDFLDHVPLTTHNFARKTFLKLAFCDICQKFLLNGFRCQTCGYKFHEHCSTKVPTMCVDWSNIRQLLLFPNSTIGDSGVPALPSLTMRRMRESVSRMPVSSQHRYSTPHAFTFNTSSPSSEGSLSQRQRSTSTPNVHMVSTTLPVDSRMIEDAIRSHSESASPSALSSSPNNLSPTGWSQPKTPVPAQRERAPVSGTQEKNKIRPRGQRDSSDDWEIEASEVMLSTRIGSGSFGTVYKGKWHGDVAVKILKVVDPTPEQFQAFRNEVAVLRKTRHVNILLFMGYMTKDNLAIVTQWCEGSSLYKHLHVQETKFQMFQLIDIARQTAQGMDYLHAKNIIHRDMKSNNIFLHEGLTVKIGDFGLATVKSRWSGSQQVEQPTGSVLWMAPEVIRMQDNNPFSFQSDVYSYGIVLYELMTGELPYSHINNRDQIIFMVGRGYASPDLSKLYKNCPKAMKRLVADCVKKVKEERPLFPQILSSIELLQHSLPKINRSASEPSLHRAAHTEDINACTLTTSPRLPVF
T1 sequence (P15056 whole entry): as the sequence (P15056 whole entry V600E) above, with E600V counted along it

With `Cc1ccc(NC(=O)c2ccc3c(c2)CC3)cc1-c1cc(OCCO)nc(N2CCOCC2)c1` [Example 2, N-(3-(2-(2-hydroxyethoxy)-6-morpholinopyridin-4-yl)-4-methylphenyl)bicyclo[4.2.0]octa-1(6),2,4-triene-3-carboxamide], the IC50 was 0.0079 µM on human recombinant cRAF, 0.0385 µM on human recombinant BRAF and 0.018 µM in test [1].
In the case of `Cc1ccc(NC(=O)c2ccc3c(c2)C(F)(F)CC3)cc1-c1cc(OCCO)nc(N2CCOCC2)c1` [Example 3, 3,3-difluoro-N-(3-(2-(2-hydroxyethoxy)-6-morpholinopyridin-4-yl)-4-methylphenyl)-2,3-dihydro-1H-indene-5-carboxamide], the IC50 on human recombinant cRAF was 0.027 µM; at human recombinant BRAF, 0.17 µM; in test [1], 0.088 µM.
As to `Cc1ccc(NC(=O)c2ccc3c(c2)C(F)(F)CO3)cc1-c1cc(OCCO)nc(N2CCOCC2)c1` [Example 4, 3,3-difluoro-N-(3-(2-(2-hydroxyethoxy)-6-morpholinopyridin-4-yl)-4-methylphenyl)-2,3-dihydrobenzofuran-5-carboxamide], the IC50 amounted to 0.051 µM at human recombinant cRAF, 0.26 µM on human recombinant BRAF and 0.096 µM in test [1].
The like results for `Cc1ccc(NC(=O)c2ccc3c(c2)CCC3(F)F)cc1-c1cc(OCCO)nc(N2CCOCC2)c1` [Example 5, 1,1-difluoro-N-(3-(2-(2-hydroxyethoxy)-6-morpholinopyridin-4-yl)-4-methylphenyl)-2,3-dihydro-1H-indene-5-carboxamide] were, in that order, 0.039 µM, 0.092 µM and 0.065 µM.
With `Cc1ccc(NC(=O)c2cnc3c(c2)CCC3(F)F)cc1-c1cc(OCCO)nc(N2CCOCC2)c1` [Example 6, 7,7-difluoro-N-(3-(2-(2-hydroxyethoxy)-6-morpholinopyridin-4-yl)-4-methylphenyl)-6,7-dihydro-5H-cyclopenta[b]pyridine-3-carboxamide], the IC50 at human recombinant cRAF came out at 0.0039 µM; on human recombinant BRAF, 0.026 µM; in test [1] it was 0.0084 µM.
With `Cc1ccc(NC(=O)c2cnc3c(c2)C(F)(F)CC3)cc1-c1cc(OCCO)nc(N2CCOCC2)c1` [Example 7, 5,5-difluoro-N-(3-(2-(2-hydroxyethoxy)-6-morpholinopyridin-4-yl)-4-methylphenyl)-6,7-dihydro-5H-cyclopenta[b]pyridine-3-carboxamide], the values for the IC50 (on human recombinant cRAF; on human recombinant BRAF; in test [1]) were 0.01 µM, 0.046 µM and 0.018 µM, respectively. Moreover, the “cell growth inhibition in H358 cancer line compared to LXH254” value in test [2] is recorded as “better or similar cell growth inhibition”. The GI50 in test [2] turned out to be 2.8 µM.
Turning to `Cc1ccc(NC(=O)c2ccc3c(c2)OC(C)(C)O3)cc1-c1cc(OCCO)nc(N2CCOCC2)c1` [Example 8, N-(3-(2-(2-hydroxyethoxy)-6-morpholinopyridin-4-yl)-4-methylphenyl)-2,2-dimethylbenzo[d][1,3]dioxole-5-carboxamide], the IC50 is 0.025 µM on human recombinant cRAF, 0.14 µM at human recombinant BRAF and 0.062 µM in test [1]. In addition, the “cell growth inhibition in H358 cancer line compared to LXH254” value in test [2] was “better or similar cell growth inhibition”. Besides, the GI50 in test [2] came to 0.22 µM.
In the case of `Cc1ccc(NC(=O)c2ccc3c(c2)OCO3)cc1-c1cc(OCCO)nc(N2CCOCC2)c1` [Example 9, N-(3-(2-(2-hydroxyethoxy)-6-morpholinopyridin-4-yl)-4-methylphenyl)benzo[d][1,3]dioxole-5-carboxamide], the IC50 at human recombinant cRAF was determined as 0.0067 µM; on human recombinant BRAF it was 0.042 µM; in test [1], 0.018 µM. In addition, in test [2], the “cell growth inhibition in H358 cancer line compared to LXH254” value is on record as “better or similar cell growth inhibition”. The same compound registered a GI50 in test [2] of 1.6 µM.
`Cc1ccc(NC(=O)c2cc3c(cn2)OC(F)(F)O3)cc1-c1cc(OCCO)nc(N2CCOCC2)c1` [Example 10, 2,2-difluoro-N-(3-(2-(2-hydroxyethoxy)-6-morpholinopyridin-4-yl)-4-methylphenyl)-[1,3]dioxolo[4,5-c]pyridine-6-carboxamide]: the IC50 on human recombinant cRAF came out at 0.025 µM; at human recombinant BRAF, 0.095 µM; in test [1], 0.055 µM. Also, in test [2], the “cell growth inhibition in H358 cancer line compared to LXH254” value is reported as “better or similar cell growth inhibition”. Further, in test [2], the GI50 is 0.085 µM.
For the compound `Cc1ncc(NC(=O)c2ccc3c(c2)OC(F)(F)O3)cc1-c1cc(OCCO)nc(N2CCOCC2)c1` [Example 11, 2,2-difluoro-N-(2′-(2-hydroxyethoxy)-2-methyl-6′-morpholino-[3,4′-bipyridin]-5-yl)benzo[d][1,3]dioxole-5-carboxamide], the IC50 at human recombinant cRAF is 0.01 µM; at human recombinant BRAF, 0.07 µM; in test [1] it was 0.039 µM.
Turning to `Cc1ccc(NC(=O)c2ccc3c(c2)OCCO3)cc1-c1cc(OCCO)nc(N2CCOCC2)c1` [Example 13, N-(3-(2-(2-hydroxyethoxy)-6-morpholinopyridin-4-yl)-4-methylphenyl)-2,3-dihydrobenzo[b][1,4]dioxine-6-carboxamide], the results for the IC50 (on human recombinant cRAF; on human recombinant BRAF; in test [1]) were 0.0047 µM, 0.031 µM and 0.013 µM, respectively. Further, the “cell growth inhibition in H358 cancer line compared to LXH254” value in test [2] was “better or similar cell growth inhibition”. Moreover, the GI50 in test [2] was 1.2 µM.

These data come from patent publication US20220135539A1, “BIARYL AMIDE COMPOUNDS, PREPARATION METHODS AND MEDICAL APPLICATIONS THEREOF” (Eternity Bioscience Inc., priority 2020, published 2022).
